Several values for one entry are separate records, joined by “and”; a condition that tells them apart may be missing. Equal values may be shown once.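 Where inhibition never reached the appropriate level, the endpoint shown equals the highest concentration tested. Otherwise, values were interpolated linearly from a five-concentration, 48-hour dose response in 96-well plates. GI50 is the concentration that inhibits growth by half. TGI denotes the concentration required for complete inhibition of growth.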
Columns and labels:
Experiment in all cases: DTP human tumour cell line panel, 48 h
786-0 renal = test system: 786-0 renal
A498 renal = test system: A498 renal
A549 NSCLC = test system: A549 NSCLC
ACHN renal = test system: ACHN renal
CAKI-1 renal = test system: CAKI-1 renal
CCRF-CEM leukemia = test system: CCRF-CEM leukemia
COLO 205 colon = test system: COLO 205 colon
DLD-1 colon = test system: DLD-1 colon
DMS 273 small cell lung = test system: DMS 273 small cell lung
EKVX NSCLC = test system: EKVX NSCLC
HCC-2998 colon = test system: HCC-2998 colon
HCT-116 colon = test system: HCT-116 colon
HCT-15 colon = test system: HCT-15 colon
HL-60(TB) leukemia = test system: HL-60(TB) leukemia
HOP-62 NSCLC = test system: HOP-62 NSCLC
HT29 colon = test system: HT29 colon
IGROV1 ovarian = test system: IGROV1 ovarian
KM12 colon = test system: KM12 colon
KM20L2 colon = test system: KM20L2 colon
LOX IMVI melanoma = test system: LOX IMVI melanoma
LXFL 529 NSCLC = test system: LXFL 529 NSCLC
M14 melanoma = test system: M14 melanoma
M19-MEL melanoma = test system: M19-MEL melanoma
MALME-3M melanoma = test system: MALME-3M melanoma
MOLT-4 leukemia = test system: MOLT-4 leukemia
NCI-H460 lung = test system: NCI-H460 lung
OVCAR-3 ovarian = test system: OVCAR-3 ovarian
OVCAR-4 ovarian = test system: OVCAR-4 ovarian
RPMI-8226 leukemia = test system: RPMI-8226 leukemia
RXF 393 renal = test system: RXF 393 renal
SF-295 CNS = test system: SF-295 CNS
SF-539 CNS = test system: SF-539 CNS
SK-MEL-2 melanoma = test system: SK-MEL-2 melanoma
SK-MEL-5 melanoma = test system: SK-MEL-5 melanoma
SN12C renal = test system: SN12C renal
SNB-19 CNS = test system: SNB-19 CNS
SNB-75 CNS = test system: SNB-75 CNS
SR leukemia = test system: SR leukemia
SW-620 colon = test system: SW-620 colon
TK-10 renal = test system: TK-10 renal
U251 CNS = test system: U251 CNS
UACC-257 melanoma = test system: UACC-257 melanoma
UACC-62 melanoma = test system: UACC-62 melanoma
UO-31 renal = test system: UO-31 renal
XF 498 CNS = test system: XF 498 CNS
DMS 114 small cell lung = test system: DMS 114 small cell lung
K-562 leukemia = test system: K-562 leukemia
OVCAR-5 ovarian = test system: OVCAR-5 ovarian
SF-268 CNS = test system: SF-268 CNS
SK-MEL-28 melanoma = test system: SK-MEL-28 melanoma
SK-OV-3 ovarian = test system: SK-OV-3 ovarian
SNB-78 CNS = test system: SNB-78 CNS

What does the source list for NC(=O)N/N=C(\CC1OC(=O)c2ccccc21)c1ccc([N+](=O)[O-])cc1 (stereo not given)?
TGI (786-0 renal): 32 µM; TGI (A498 renal): > 100 µM; TGI (A549 NSCLC): > 100 µM; TGI (ACHN renal): > 100 µM; TGI (CAKI-1 renal): 71.3 µM; TGI (CCRF-CEM leukemia): > 100 µM; TGI (COLO 205 colon): > 100 µM; TGI (DLD-1 colon): 47.9 µM; TGI (DMS 273 small cell lung): 76.1 µM; TGI (EKVX NSCLC): > 100 µM; TGI (HCC-2998 colon): 32.7 µM; TGI (HCT-116 colon): 74.2 µM; TGI (HCT-15 colon): 59.7 µM; TGI (HL-60(TB) leukemia): > 100 µM; TGI (HOP-62 NSCLC): 53.6 µM; TGI (HT29 colon): > 100 µM; TGI (IGROV1 ovarian): 49.8 µM; TGI (KM12 colon): 95.9 µM; TGI (KM20L2 colon): 96.2 µM; TGI (LOX IMVI melanoma): 33.9 µM; TGI (LXFL 529 NSCLC): > 100 µM; TGI (M14 melanoma): > 100 µM; TGI (M19-MEL melanoma): 68.1 µM; TGI (MALME-3M melanoma): 73.7 µM; TGI (MOLT-4 leukemia): > 100 µM; TGI (NCI-H460 lung): > 100 µM; TGI (OVCAR-3 ovarian): > 100 µM; TGI (OVCAR-4 ovarian): > 100 µM; TGI (RPMI-8226 leukemia): > 100 µM; TGI (RXF 393 renal): 28.9 µM; TGI (SF-295 CNS): > 100 µM; TGI (SF-539 CNS): 55 µM; TGI (SK-MEL-2 melanoma): 35.4 µM; TGI (SK-MEL-5 melanoma): 47.2 µM; TGI (SN12C renal): > 100 µM; TGI (SNB-19 CNS): 51.6 µM; TGI (SNB-75 CNS): 78.6 µM; TGI (SR leukemia): > 100 µM; TGI (SW-620 colon): > 100 µM; TGI (TK-10 renal): > 100 µM; TGI (U251 CNS): 39.5 µM; TGI (UACC-257 melanoma): > 100 µM; TGI (UACC-62 melanoma): 34.8 µM; TGI (UO-31 renal): > 100 µM; TGI (XF 498 CNS): > 100 µM

For COc1cc2c(c(OC)c1OC)-c1ccc(SC)c(=O)cc1[C@@H](NC(=O)c1cccc([N+](=O)[O-])c1)CC2, which TGI (786-0 renal) is on record?
The TGI was 11.8 µM.

What about the TGI (A498 renal) of the same compound?
Its TGI is 0.0479 µM.

What about the GI50 (A549 NSCLC) of the same compound?
Its GI50 is 0.033 µM.

And the TGI (A549 NSCLC)?
Its TGI is 23.1 µM.

What about the TGI (ACHN renal) of the same compound?
The TGI was > 100 µM.

And the TGI (CCRF-CEM leukemia)?
The TGI was > 100 µM.

And the TGI (COLO 205 colon)?
Its TGI is 0.0343 µM.

And the TGI (DLD-1 colon)?
Its TGI is > 100 µM.

What about the GI50 (DMS 114 small cell lung) of the same compound?
Its GI50 is 0.0165 µM.

What about the TGI (DMS 114 small cell lung) of the same compound?
The TGI was 0.0365 µM.

What about the TGI (DMS 273 small cell lung) of the same compound?
The TGI was 70.2 µM.

And the TGI (EKVX NSCLC)?
Its TGI is 27.3 µM.

What about the TGI (HCC-2998 colon) of the same compound?
The TGI was 0.0497 µM.

What about the TGI (HCT-116 colon) of the same compound?
Its TGI is 0.0439 µM and 0.117 µM.

And the GI50 (HCT-15 colon)?
The GI50 was 0.027 µM.

What about the TGI (HCT-15 colon) of the same compound?
Its TGI is > 100 µM.

What about the TGI (HOP-62 NSCLC) of the same compound?
The TGI was 14.9 µM.

And the TGI (HT29 colon)?
Its TGI is 0.0708 µM.

And the TGI (IGROV1 ovarian)?
Its TGI is 35.6 µM.

What about the TGI (K-562 leukemia) of the same compound?
Its TGI is > 100 µM.

What about the TGI (KM12 colon) of the same compound?
Its TGI is > 100 µM.

And the TGI (KM20L2 colon)?
The TGI was 0.0358 µM.

What about the TGI (M19-MEL melanoma) of the same compound?
The TGI was > 100 µM.

What about the TGI (MOLT-4 leukemia) of the same compound?
Its TGI is > 100 µM.

What about the TGI (OVCAR-3 ovarian) of the same compound?
The TGI was 0.0404 µM.

What about the TGI (OVCAR-4 ovarian) of the same compound?
Its TGI is > 100 µM.

And the TGI (OVCAR-5 ovarian)?
The TGI was > 100 µM.

And the TGI (SF-268 CNS)?
Its TGI is 16.5 µM.

What about the TGI (SF-539 CNS) of the same compound?
The TGI was 0.0377 µM.

What about the GI50 (SK-MEL-28 melanoma) of the same compound?
Its GI50 is 10.5 µM.

What about the TGI (SK-MEL-28 melanoma) of the same compound?
Its TGI is 82.3 µM.

And the TGI (SK-MEL-5 melanoma)?
The TGI was 0.0467 µM.

What about the TGI (SK-OV-3 ovarian) of the same compound?
Its TGI is 0.0638 µM.

What about the TGI (SN12C renal) of the same compound?
Its TGI is 21.6 µM.

What about the GI50 (SNB-19 CNS) of the same compound?
Its GI50 is 0.0268 µM.

And the TGI (SNB-78 CNS)?
The TGI was > 100 µM.

And the GI50 (SR leukemia)?
Its GI50 is 0.00851 µM.

What about the TGI (SR leukemia) of the same compound?
Its TGI is 0.0732 µM.

What about the TGI (SW-620 colon) of the same compound?
Its TGI is > 100 µM.

What about the TGI (TK-10 renal) of the same compound?
The TGI was 55.3 µM.

And the TGI (U251 CNS)?
The TGI was 0.0577 µM.

What about the TGI (UACC-257 melanoma) of the same compound?
The TGI was 33.9 µM.

And the TGI (UACC-62 melanoma)?
The TGI was 36.4 µM.

What about the GI50 (UO-31 renal) of the same compound?
Its GI50 is 0.0276 µM.

What about the TGI (UO-31 renal) of the same compound?
Its TGI is > 100 µM.

— PubChem BioAssay (NCI)
